{"source": "PubChem BioAssay AID652275", "about": "(Broad Institute, 2013)", "note": "Inconclusive results are not listed. Activity calls are given as the source filed them. The rule behind the calls is not given here.", "data": [{"test_system": "not listed separately", "experiment": "T. cruzi growth inhibition in host cells, dose response, cell-based, plate reader, dry powder, set 2 (AID 652275)", "conditions": "T. cruzi proliferation in host cells, plate reader; at 16 µM (top of the series)", "values": [{"smiles": "CN(C)CC#Cc1cccc(-c2nc(C(=O)O)cc3c2[C@H](CCO)N(S(=O)C(C)(C)C)C3)c1", "note": "(stereo partly specified)", "activity change, negative = inhibition": "-23.9% (inactive)"}, {"smiles": "C[C@@H](CO)N1CC[C@H](CNC(=O)OC(C)(C)C)Oc2c(cccc2[N+](=O)[O-])C1=O", "activity change, negative = inhibition": "-13.9% (inactive)"}, {"smiles": "CN(C)CC#Cc1cccc(-c2nc(C(=O)N3CCN(C)CC3)cc3c2[C@@H](CCO)N(S(=O)C(C)(C)C)C3)c1", "note": "(stereo partly specified)", "activity change, negative = inhibition": "-4.18% (inactive)"}, {"smiles": "CC(C)N1C[C@@H](C)[C@H](CN(C)Cc2ccc(OCCCC(F)(F)C(F)(F)C(F)(F)C(F)(F)C(F)(F)C(F)(F)C(F)(F)C(F)(F)F)cc2)Oc2c(NC(=O)c3ccncc3)cccc2C1=O", "activity change, negative = inhibition": "33.7% (inactive)"}, {"smiles": "CC(C)N1C[C@@H](C)[C@H](CN(C)C(=O)OC(C)(C)C)Oc2c(C#N)cccc2C1=O", "activity change, negative = inhibition": "-37% (inactive)"}, {"smiles": "C[C@@H]1CN([C@@H](C)CO)C(=O)c2cccc(NC(=O)c3ccncc3)c2O[C@H]1CN(C)C", "activity change, negative = inhibition": "18.7% (inactive)"}, {"smiles": "CC(C)N1C[C@@H](C)[C@H](CN(C)Cc2ccc(Oc3ccccc3)cc2)Oc2c(C(=O)O)cccc2C1=O", "activity change, negative = inhibition": "-33.8% (inactive)"}, {"smiles": "CN(C)CC#Cc1cccc(-c2nc(C(=O)N3CCN(C)CC3)cc3c2[C@H](CCO)N(S(=O)C(C)(C)C)C3)c1", "note": "(stereo partly specified)", "activity change, negative = inhibition": "1.54% (inactive)"}, {"smiles": "CC(C)N1C[C@@H](CN)Oc2c(NC(=O)c3ccncc3)cccc2C1=O", "activity change, negative = inhibition": "-29% (inactive)"}, {"smiles": "COCCNC(=O)c1cc2c(c(-c3cccc(C#CCN(C)C)c3)n1)[C@H](CCO)N(S(=O)C(C)(C)C)C2", "note": "(stereo partly specified)", "activity change, negative = inhibition": "-35.9% (inactive)"}]}, {"test_system": "T. cruzi proliferation in host cells, plate reader", "experiment": "T. cruzi growth inhibition in host cells, dose response, cell-based, plate reader, dry powder, set 2 (AID 652275)", "conditions": "not given", "units": {"AC50": "nM"}, "values": [{"smiles": "C[C@@H]1CN([C@@H](C)CO)C(=O)c2cccc(NC(=O)c3ccncc3)c2O[C@H]1CN(C)Cc1ccc(Oc2ccccc2)cc1", "AC50": 1.11}]}]}
